Molecular target: T1, CCR2 (Mus musculus, UniProt P51683)
T1 construct: membranes from Ba/F3 cells transfected with mouse CCR2
Assay: […]-rhCCL2 radioligand displacement, SPA, on membranes in mouse plasma
Assay type: binding

T1 sequence (P51683 whole entry): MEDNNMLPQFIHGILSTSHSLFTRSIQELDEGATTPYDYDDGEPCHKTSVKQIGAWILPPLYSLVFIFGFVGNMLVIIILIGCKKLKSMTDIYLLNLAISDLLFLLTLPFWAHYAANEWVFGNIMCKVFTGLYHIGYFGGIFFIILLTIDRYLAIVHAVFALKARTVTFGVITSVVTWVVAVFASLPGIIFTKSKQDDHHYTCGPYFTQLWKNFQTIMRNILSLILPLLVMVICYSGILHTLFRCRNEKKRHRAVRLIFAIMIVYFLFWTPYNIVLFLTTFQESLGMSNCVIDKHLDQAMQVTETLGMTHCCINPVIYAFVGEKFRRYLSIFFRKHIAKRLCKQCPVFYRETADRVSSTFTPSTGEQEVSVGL

IC50: 19 nM
SMILES: CO[C@@H]1COCC[C@@H]1N[C@@H]1CC[C@@](C(=O)N2CCc3ncc(C(F)(F)F)cc3C2)(C(C)C)C1 [MK0812]

From PMC2777898, “CCR2 and CXCR4 regulate peripheral blood monocyte pharmacodynamics and link to efficacy in experimental autoimmune encephalomyelitis” (Journal of Inflammation (London, England), 2009)
